Like-named read-outs stand apart in the source and are kept apart here.
Columns and labels:
[1] = tested on: ROS in Col‐0 and fer‐4 roots; assay: ROS detection in plant roots (H2DCF-DA fluorescence); conditions: 5 μM for 15 min, vs DMSO and lapatinib
[2] = target: T1, FER‐CD (Arabidopsis thaliana, UniProt Q9SCZ4); assay: biochemical
[3] = tested on: HERK1‐CD; assay: HERK1-CD kinase activity (autophosphorylation); assay type: biochemical, Arabidopsis thaliana; conditions: 5 μM
[4] = tested on: PER5; conditions: 5 μM for 24 h, confocal microscopy
[5] = tested on: Ralstonia solanacearum; assay type: in vivo; conditions: Arabidopsis seedlings pretreated with 5 μM, 4 days after inoculation
[6] = tested on: FRK1; conditions: 5 μM for 24 h, confocal microscopy
[7] = tested on: FER cytoplasmic domain (FER‐CD); assay: FER-CD kinase activity (autophosphorylation), high-throughput screening, Kinase-Lumi luminescent ATP consumption; assay type: biochemical, Arabidopsis thaliana; conditions: in vitro autophosphorylation
[8] = tested on: THE1‐CD; assay: THE1-CD kinase activity (autophosphorylation); assay type: biochemical, Arabidopsis thaliana; conditions: 5 μM
[9] = tested on: ANJEA‐CD; assay: ANJEA-CD kinase activity (autophosphorylation); assay type: biochemical, Arabidopsis thaliana; conditions: 5 μM
[10] = tested on: PKC; set-up: method as in Omura et al., [2018]; conditions: ref Omura et al., [2018]; cited from earlier work
[11] = tested on: Meloidogyne incognita; assay: Rice root-knot nematode disease, preventive root treatment; assay type: in vivo; conditions: in vivo
[12] = tested on: Ralstonia solanacearum; assay type: in vivo, tobacco; conditions: roots pretreated twice with 3 mL of 5 μM
[13] = tested on: Ralstonia solanacearum; assay type: in vivo, tobacco; conditions: 5 μM irrigated twice two days after inoculation
[14] = tested on: PKA; set-up: method as in Omura et al., [2018]; conditions: ref Omura et al., [2018]; cited from earlier work
[15] = tested on: tobacco; assay: Growth of tobacco (shoot and root fresh weight, Day 25); conditions: 5 μM irrigated twice
[16] = tested on: Ralstonia solanacearum; assay type: in vivo, tomato; conditions: roots pretreated twice with 3 mL of 5 μM
[17] = tested on: Meloidogyne incognita; assay: Established rice root-knot nematode disease (inhibitor applied after inoculation); assay type: in vivo; conditions: in vivo
[18] = tested on: Arabidopsis Col‐0 and fer‐4 seedlings; assay: Growth of Arabidopsis seedlings (root length, shoot fresh weight); conditions: 5 μM for 3 days, vs ddH2O (mock) and lapatinib
[19] = tested on: NtFER‐CD; assay: NtFER-CD kinase activity (autophosphorylation); assay type: biochemical, Nicotiana tabacum; conditions: tobacco FER homologue
[20] = target: T1, FER‐CD; conditions: read-out: Equilibrium dissociation constant (KD) of binding to FER-CD; MST, 25°C, 100 nM labelled FER-CD, means ± SEs (n = 3)

T1 sequence (Q9SCZ4 469-895): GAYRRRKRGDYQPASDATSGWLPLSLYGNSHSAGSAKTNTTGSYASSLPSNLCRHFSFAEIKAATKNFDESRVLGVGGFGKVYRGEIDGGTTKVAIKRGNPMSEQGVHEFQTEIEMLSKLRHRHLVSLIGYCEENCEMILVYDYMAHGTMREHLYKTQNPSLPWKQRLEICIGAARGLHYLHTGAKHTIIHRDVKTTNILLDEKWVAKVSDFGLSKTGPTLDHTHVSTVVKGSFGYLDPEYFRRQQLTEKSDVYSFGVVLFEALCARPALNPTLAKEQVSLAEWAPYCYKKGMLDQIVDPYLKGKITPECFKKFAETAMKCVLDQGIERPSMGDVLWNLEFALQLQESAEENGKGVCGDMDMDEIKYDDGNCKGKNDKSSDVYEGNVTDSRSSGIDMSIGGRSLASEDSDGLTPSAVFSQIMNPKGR

Compound: Cc1cc(Nc2ncc(F)c(NC3C4C=CC(C4)C3C(N)=O)n2)ccc1N1CCN(C)CC1 (stereo not drawn) [Cenisertib]
- Production of ROS in Col-0 roots [1]: had no effect on ROS levels
- Kd [2]: 1970 nM
- Inhibition rate of HERK1-CD kinase activity [3]: higher than 88%
- Expression of PER5 in roots [4]: did not affect the expression of PER5
- Cotyledon bleaching caused by R. solanacearum [5]: turned white
- Expression of FRK1 in roots [6]: increased the expression of FRK1
- Effect on FER kinase activity [7]: inhibited the kinase activity of FER
- Inhibition rate of THE1-CD kinase activity [8]: higher than 88%
- Inhibition rate of ANJEA-CD kinase activity [9]: higher than 88%

Compound: CN[C@@H]1C[C@H]2O[C@@](C)([C@@H]1OC)n1c3ccccc3c3c4c(c5c6ccccc6n2c5c31)C(=O)NC4 [Staurosporine]
- Production of ROS in Col-0 roots [1]: significantly increased the production of ROS
- Expression of PER5 in roots [4]: elevated the expression of PER5 to a certain extent
- Cotyledon bleaching caused by R. solanacearum [5]: effectively prevented the cotyledon bleaching
- Control of rice root-knot nematode disease [11]: alleviated soil‐borne diseases
- Expression of FRK1 in roots [6]: observably enhanced the expression of FRK1
- Root cell morphology [6]: caused expansion of the root cells
- Control of tobacco bacterial wilt [12]: alleviated soil‐borne diseases
- Effect on FER kinase activity [7]: inhibited the kinase activity of FER
- Effect on established tobacco bacterial wilt [13]: could not completely prevent the occurrence of the diseases or cure already diseased plants
- Growth (biomass) of tobacco shoots and roots [15]: did not observably affect the biomass
- Control of tomato bacterial wilt [16]: alleviated soil‐borne diseases
- Effect on established rice root-knot nematode disease [17]: could not completely prevent the occurrence of the diseases or cure already diseased plants
- Growth of roots and shoots of Arabidopsis Col-0 seedlings [18]: severely inhibited root and shoot growth

Compound: CS(=O)(=O)CCNCc1ccc(-c2ccc3ncnc(Nc4ccc(OCc5cccc(F)c5)c(Cl)c4)c3c2)o1 [lapatinib]
- Expression of PER5 in roots [4]: did not affect the expression levels
- Cotyledon bleaching caused by R. solanacearum [5]: turned white
- Expression of FRK1 in roots [6]: did not affect the expression levels
- Effect on FER kinase activity [7]: did not affect FER kinase activity
- Inhibitory effect on NtFER-CD kinase activity [19]: ineffective

Compound: Nc1ncnc2c1ncn2[C@@H]1O[C@H](COP(=O)(O)OP(=O)(O)OP(=O)(O)O)[C@@H](O)[C@H]1O [ATP]
- Kd [20]: 18400 nM

Reference: publication PMC9829398 (Plant Biotechnology Journal, 2022)
